Source: patent publication US5846936A, “Growth hormone releasing factor analogs” (Roche Vitamins Inc., priority 1995, dated 1998)
*1 amine or outer side, *2 acyl side, *3 side chain or, on linkers, in order; H or OH if unused. Where a SMILES comes first, the peptide text is derived from it. Where no end group is shown, it is not given here. [ ]: non-standard residue; d: D form. The star is where a group is joined. Desaminotyrosyl = O=C(CCc1ccc(O)cc1)*; βAsp = O=C(O)[C@H](CC(=O)[*:2])N[*:1]

Assays:
rat pituitary cells = type: cell-based
Protocol: The biological activity of the novel peptides were compared with that of a synthetic standard of the natural sequence of GRF(1-44)-NH2 (SEQ ID NO: 1-NH2) which was isolated from a human pancreatic tumor of an individual suffering from acromegaly (Salk Institute standard hp-GRF-NH2 (NL-A-10)). The assay for biological activity, which is based on the ability to stimulate production of growth hormone in rat pituitary cells in tissue culture, was performed in the following manner. Pituitaries from 30-40 male Sprague-Dawley rats (175 g) were removed aseptically after decapitation. The anterior lobes were collected, washed 3 times in sterile Hepes buffer (0.025M)(pH 7.35) and dispersed at 37° C. in 20-30 ml Hepes buffer (pH 7.35) containing collagenase (4 mg per ml) and Dispase (Protease grande II, 2 mg per ml). After gentle 80 min. vortexing and trituration by Pasteur pipette, the dispersed cells were separated by centrifugation (150×g, 4 min.) and re-suspended in Hepes buffer containing neuraminidase (4 mg/ml), and […] ethylenediaminetetraacetic acid (EDTA) disodium salt pH 7.35, for 10 min. The cells were washed twice with plating medium and plated on multiwell-plates (1.5×10^5 cells per ml) using the following defined medium: F-12/DMEM/BGJ(6:3:1) (Gibco: 430-1700/430-1600/320-2591) with 2 g BSA/L., 2.38 g Hepes/L.,50 mg Gentamycin/L (Schering Co.). The medium in each well was supplemented either with the novel peptide or natural GRF(1-44)-NH2 (SEQ ID NO: 1-NH2) at concentrations ranging from 3.1 to 200 fmol. per ml. of medium. Control wells contained no supplement. Plating was done with this medium added with 2% fetal calf serum to ensure rapid fixation of the cells. On the fourth day the cells were washed twice with the defined medium without fetal calf serum. Finally […] of defined medium was added to each well plus […] of the same medium containing each individual treatment, in triplicate. After 3 hours of incubation the medium was collected and diluted as required to conduct radioimmunoassay (RIA) for rat growth hormone. RIAs were conducted using Sinha's anti-murine GH immune serum and procedures according to the National Pituitary Agency using protein A to precipitate antibody antigen complex.

[1] = Half-life stability of GRF analogs in aqueous solution by reverse phase HPLC; type: physicochemical; settings: aqueous buffer pH 7.40 (0.25M Na2HPO4/H3PO4, 1.0 mM NaN3), 37° C., 0.15 mg/mL
Protocol: Half-life stability of GRF analogs in aqueous solution was determined by reverse phase HPLC at 37° C. GRF analogs were prepared as described above. GRF analogs were dissolved in […] of H2 O and then taken up in 1.0 mL of buffer solution (pH 7.40) containing 0.25M Na2 HPO4 /H3 PO4 and 1.0 mM NaN3. The concentration of the GRF analogs was 0.15 mg/mL. The HPLC system was a Laboratory Data Control (LDC) HPLC with a Waters C-18 column (3.9×300 mm, 10μ). The detector was a LDC Spectromonitor III and the gradient delivery system was a Constametric II. Mobile phase--(A) 0.025% TFA in H2 O, (B) 0.025% TFA in acetonitrile. Gradient was 0-37% (B) in 15 minutes for SEQ ID NO: 8-NH2 where Xaa^1 is desNH2 Tyr and Xaa^2 is D-Ala and SEQ ID NO: 9-NH2 where Xaa^1 is desNH2 Tyr and Xaa^2 is D-Ala; 0-35% (B) in 15 minutes for SEQ ID NO: 35-NH2 where Xaa^1 is desNH2 Tyr and Xaa^2 is D-Ala; and 0-36% (B) in 15 minutes for SEQ ID NO: 10-NH2 where Xaa^1 is desNH2 Tyr and Xaa^2 is D-Ala. Flow rate for all gradients was 2 ml/minute. Detection was at 206 nm using a UV detector.

[2] = literature; cited from earlier work
[3] = products of Asn^8 deamidation of [Leu^27]-GRF(1-32)-NH2 at pH 7.4, literature; cited from earlier work
crossbred swine = assay: In vivo GRF analog administration in swine, serum GH by RIA (GH AUC); settings: relative to GRF(1-29)-NH2
Protocol: In vivo GRF analog studies were performed in crossbred swine (approximately70 lbs; Hoffmann-La Roche Experimental Research Facility) housed in individual metabolism cages with food and water freely available. For each GRF analog examined, six pigs were arranged in a 6×6 latin square design, such that each pig received a different dose (0 [saline], 0.3, 1.0, 3.0, 6.0 or 10.0 μg/kg body weight) over a six day period. […] All swine were cannulated via the femoral artery under halothane/ketamine HCL/xylezine anesthesia for subsequent (2-3 days) blood sampling. GRF analog was administered by subcutaneous injection in porcine gelatin. Pretreatment (control) blood samples were taken every 30 min from 8:30-9:30 a.m. Treatment doses were administered beginning at 10:00 a.m. One hr post-dosing, animals were sampled at 10 min intervals; 2nd hr post-dosing, animals were sampled at 15 min intervals; 3rd hr post-dosing,animals were sampled at 30 min intervals. […]
GH levels in porcine sera were measured by homologous double-antibody RIA, employing porcine GH standard (lot# AFP-10859C) supplied by Dr. A. Parlow (Research and Education Institute, Torrance, Calif.) and baboon anti-pGH sera (B-58: Hoffmann-La Roche). […] GH area under the curve (GH AUC) for the treatment period (0-360 min) was determined by trapezoidal summation. […]

Molecule	Potency of GRF Analogs Relative to GRF(1-44)-NH2 (SEQ ID NO: 1-NH2) (rat pituitary cells)	further results
CC[C@H](C)[C@H](NC(=O)[C@H](C)NC(=O)[C@H](CC(=O)O)NC(=O)[C@@H](C)NC(=O)CCc1ccc(O)cc1)C(=O)N[C@@H](Cc1ccccc1)C(=O)N[C@H](C(=O)N[C@H](C(=O)N[C@@H](CO)C(=O)N[C@@H](Cc1ccc(O)cc1)C(=O)N[C@@H](CCCNC(=N)N)C(=O)N[C@@H](CCCCN)C(=O)N[C@H](C(=O)N[C@@H](CC(C)C)C(=O)N[C@@H](C)C(=O)N[C@@H](CCC(N)=O)C(=O)N[C@@H](CC(C)C)C(=O)N[C@@H](CO)C(=O)N[C@@H](C)C(=O)N[C@@H](CCCNC(=N)N)C(=O)N[C@@H](CCCCN)C(=O)N[C@@H](CC(C)C)C(=O)N[C@@H](CC(C)C)C(=O)N[C@@H](CCC(N)=O)C(=O)N[C@@H](CC(=O)O)C(=O)N[C@H](C(=O)N[C@@H](CCSC)C(=O)N[C@@H](CO)C(=O)N[C@@H](CCCNC(=N)N)C(N)=O)[C@@H](C)CC)C(C)C)[C@@H](C)O)[C@@H](C)O [SEQ ID NO: 8-NH2] (Desaminotyrosyl-[dA]DAIFTTSYRKVLAQLSARKLLQDIMSR-NH2)	3.77	HALF-LIFE t(1/2) [1]: 169 h
CC[C@H](C)[C@H](NC(=O)[C@H](C)NC(=O)[C@H](CC(=O)O)NC(=O)[C@@H](C)NC(=O)CCc1ccc(O)cc1)C(=O)N[C@@H](Cc1ccccc1)C(=O)N[C@H](C(=O)N[C@@H](CCC(N)=O)C(=O)N[C@@H](CO)C(=O)N[C@@H](Cc1ccc(O)cc1)C(=O)N[C@@H](CCCNC(=N)N)C(=O)N[C@@H](CCCCN)C(=O)N[C@H](C(=O)N[C@@H](CC(C)C)C(=O)N[C@@H](C)C(=O)N[C@@H](CCC(N)=O)C(=O)N[C@@H](CC(C)C)C(=O)N[C@@H](CO)C(=O)N[C@@H](C)C(=O)N[C@@H](CCCNC(=N)N)C(=O)N[C@@H](CCCCN)C(=O)N[C@@H](CC(C)C)C(=O)N[C@@H](CC(C)C)C(=O)N[C@@H](CCC(N)=O)C(=O)N[C@@H](CC(=O)O)C(=O)N[C@H](C(=O)N[C@@H](CCSC)C(=O)N[C@@H](CO)C(=O)N[C@@H](CCCNC(=N)N)C(N)=O)[C@@H](C)CC)C(C)C)[C@@H](C)O [SEQ ID NO: 10-NH2] (Desaminotyrosyl-[dA]DAIFTQSYRKVLAQLSARKLLQDIMSR-NH2)	4.57	HALF-LIFE t(1/2) [1]: 122 h
GRF(1-29)-NH2	–	Intrinsic activity and potency in vitro [2]: full intrinsic activity and potency
[isoAsp^8, Leu^27 ]-GRF(1-32)-NH2 (YADAIFT[βAsp]SYRKVLGQLSARKLLQDILSRQQG-NH2; N-terminus assumed; SMILES CC[C@H](C)[C@H](NC(=O)[C@H](C)NC(=O)[C@H](CC(=O)O)NC(=O)[C@H](C)NC(=O)[C@@H](N)Cc1ccc(O)cc1)C(=O)N[C@@H](Cc1ccccc1)C(=O)N[C@H](C(=O)N[C@@H](CC(=O)N[C@@H](CO)C(=O)N[C@@H](Cc1ccc(O)cc1)C(=O)N[C@@H](CCCNC(=N)N)C(=O)N[C@@H](CCCCN)C(=O)N[C@H](C(=O)N[C@@H](CC(C)C)C(=O)NCC(=O)N[C@@H](CCC(N)=O)C(=O)N[C@@H](CC(C)C)C(=O)N[C@@H](CO)C(=O)N[C@@H](C)C(=O)N[C@@H](CCCNC(=N)N)C(=O)N[C@@H](CCCCN)C(=O)N[C@@H](CC(C)C)C(=O)N[C@@H](CC(C)C)C(=O)N[C@@H](CCC(N)=O)C(=O)N[C@@H](CC(=O)O)C(=O)N[C@H](C(=O)N[C@@H](CC(C)C)C(=O)N[C@@H](CO)C(=O)N[C@@H](CCCNC(=N)N)C(=O)N[C@@H](CCC(N)=O)C(=O)N[C@@H](CCC(N)=O)C(=O)NCC(N)=O)[C@@H](C)CC)C(C)C)C(=O)O)[C@@H](C)O) [deamidation product of [Leu^27]-GRF(1-32)-NH2]	–	Biological activities [3]: substantially reduced biological activities
CC[C@H](C)[C@H](NC(=O)[C@H](C)NC(=O)[C@H](CC(=O)O)NC(=O)[C@@H](C)NC(=O)CCc1ccc(O)cc1)C(=O)N[C@@H](Cc1ccccc1)C(=O)N[C@H](C(=O)N[C@@H](CO)C(=O)N[C@@H](CO)C(=O)N[C@@H](Cc1ccc(O)cc1)C(=O)N[C@@H](CCCNC(=N)N)C(=O)N[C@@H](CCCCN)C(=O)N[C@H](C(=O)N[C@@H](CC(C)C)C(=O)N[C@@H](C)C(=O)N[C@@H](CCC(N)=O)C(=O)N[C@@H](CC(C)C)C(=O)N[C@@H](CO)C(=O)N[C@@H](C)C(=O)N[C@@H](CCCNC(=N)N)C(=O)N[C@@H](CCCCN)C(=O)N[C@@H](CC(C)C)C(=O)N[C@@H](CC(C)C)C(=O)N[C@@H](CCC(N)=O)C(=O)N[C@@H](CC(=O)O)C(=O)N[C@H](C(=O)N[C@@H](CCSC)C(=O)N[C@@H](CO)C(=O)N[C@@H](CCCNC(=N)N)C(N)=O)[C@@H](C)CC)C(C)C)[C@@H](C)O [SEQ ID NO: 9-NH2] (Desaminotyrosyl-[dA]DAIFTSSYRKVLAQLSARKLLQDIMSR-NH2)	3.55	–
CC[C@H](C)[C@H](NC(=O)[C@H](C)NC(=O)[C@H](CC(=O)O)NC(=O)[C@@H](C)NC(=O)CCc1ccc(O)cc1)C(=O)N[C@@H](Cc1ccccc1)C(=O)N[C@H](C(=O)N[C@@H](CC(N)=O)C(=O)N[C@@H](CO)C(=O)N[C@@H](Cc1ccc(O)cc1)C(=O)N[C@@H](CCCNC(=N)N)C(=O)N[C@@H](CCCCN)C(=O)N[C@H](C(=O)N[C@@H](CC(C)C)C(=O)N[C@@H](C)C(=O)N[C@@H](CCC(N)=O)C(=O)N[C@@H](CC(C)C)C(=O)N[C@@H](CO)C(=O)N[C@@H](C)C(=O)N[C@@H](CCCNC(=N)N)C(=O)N[C@@H](CCCCN)C(=O)N[C@@H](CC(C)C)C(=O)N[C@@H](CC(C)C)C(=O)N[C@@H](CCC(N)=O)C(=O)N[C@@H](CC(=O)O)C(=O)N[C@H](C(=O)N[C@@H](CCSC)C(=O)N[C@@H](CO)C(=O)N[C@@H](CCCNC(=N)N)C(N)=O)[C@@H](C)CC)C(C)C)[C@@H](C)O [SEQ ID NO: 34-NH2, reference compound] (Desaminotyrosyl-[dA]DAIFTNSYRKVLAQLSARKLLQDIMSR-NH2)	4.71	Times more potent than GRF(1-29)-NH2 (SEQ ID NO: 3-NH2) (crossbred swine): 10-15 times
HVDAIFTQSYRKVLAQLSARKLLQDILSRQQG [SEQ ID NO: 13-OH]	2.79	–
HADAIFTQSYRKVLAQLSARKLLQDILSRQQG [SEQ ID NO: 23-OH]	2.96	–
[Asp^8, Leu^27 ]-GRF(1-32)-NH2 (YADAIFTDSYRKVLGQLSARKLLQDILSRQQG-NH2) [deamidation product of [Leu^27]-GRF(1-32)-NH2]	–	Biological activities [3]: substantially reduced biological activities
